According to patent publication US8367687B2, “Pyrazole derivatives” (Novartis AG, priority 2007, dated 2013):
Read-outs that look alike come from different tables or passages of the source.

Experiments:
Assay type in all cases: biochemical
CDK2 cyA = CDK2 cyA (Homo sapiens, UniProt P24941); test: CDK2 cyA IMAP
CDK4 = CDK4 (Homo sapiens, UniProt P11802); test: CDK4 HTRF
hCDK1/B = hCDK1/B (Homo sapiens, UniProt P06493); test: hCDK1/B
[1] = Table 1, read-out: CDK2 cyA IMAP
[2] = Table 2, read-out: CDK2cyA IMAP/ IC50
[3] = Table 2, read-out: CDK4 HTRF/ IC50

Chain of hCDK1/B (P06493 whole entry): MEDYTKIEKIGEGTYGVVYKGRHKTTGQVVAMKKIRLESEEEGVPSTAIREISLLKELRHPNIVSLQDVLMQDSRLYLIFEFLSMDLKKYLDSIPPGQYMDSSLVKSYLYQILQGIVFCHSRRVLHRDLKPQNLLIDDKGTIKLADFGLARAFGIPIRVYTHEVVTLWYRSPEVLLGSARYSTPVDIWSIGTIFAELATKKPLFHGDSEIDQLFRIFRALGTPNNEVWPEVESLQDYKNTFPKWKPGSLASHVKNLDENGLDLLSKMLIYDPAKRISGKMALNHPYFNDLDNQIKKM
Chain of hCDK1/B (P14635 whole entry partner): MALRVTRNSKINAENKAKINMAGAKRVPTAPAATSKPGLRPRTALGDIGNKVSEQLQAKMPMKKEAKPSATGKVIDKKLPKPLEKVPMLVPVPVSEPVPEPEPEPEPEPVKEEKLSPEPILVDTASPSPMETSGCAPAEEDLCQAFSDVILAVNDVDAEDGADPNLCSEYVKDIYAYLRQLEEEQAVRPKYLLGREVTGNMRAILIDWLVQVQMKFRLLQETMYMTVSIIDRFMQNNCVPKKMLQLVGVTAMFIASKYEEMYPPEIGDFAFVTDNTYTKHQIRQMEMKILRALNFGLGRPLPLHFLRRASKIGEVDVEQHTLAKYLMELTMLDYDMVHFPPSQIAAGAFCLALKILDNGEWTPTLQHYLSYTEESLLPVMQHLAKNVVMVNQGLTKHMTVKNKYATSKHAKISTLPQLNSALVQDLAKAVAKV
Chain of CDK4 (P11802 whole entry): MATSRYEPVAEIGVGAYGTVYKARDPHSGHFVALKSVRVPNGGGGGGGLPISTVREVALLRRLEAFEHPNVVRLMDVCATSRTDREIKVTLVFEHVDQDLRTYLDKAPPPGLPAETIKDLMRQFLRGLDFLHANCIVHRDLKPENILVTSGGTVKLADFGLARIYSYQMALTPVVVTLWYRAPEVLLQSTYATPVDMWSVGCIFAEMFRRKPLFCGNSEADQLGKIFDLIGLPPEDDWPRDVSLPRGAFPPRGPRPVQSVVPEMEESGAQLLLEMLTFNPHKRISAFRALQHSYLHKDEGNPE
Chain of CDK4 (P24385 whole entry partner): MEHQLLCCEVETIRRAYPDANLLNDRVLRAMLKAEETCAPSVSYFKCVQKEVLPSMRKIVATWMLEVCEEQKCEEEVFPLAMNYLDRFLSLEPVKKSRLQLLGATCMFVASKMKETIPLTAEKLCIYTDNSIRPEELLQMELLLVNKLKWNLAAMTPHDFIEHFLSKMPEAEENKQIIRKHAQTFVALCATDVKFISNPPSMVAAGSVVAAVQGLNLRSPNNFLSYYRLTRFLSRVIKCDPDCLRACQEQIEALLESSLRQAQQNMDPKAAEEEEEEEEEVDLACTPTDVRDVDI

Row | IC50 (CDK2 cyA; [1]) [µM] | IC50 (CDK4; Table 1, read-out: CDK4 HTRF) [µM] | IC50 (hCDK1/B; Table 1) [µM] | IC50 (CDK2 cyA; [2]) [µM] | IC50 (CDK4; [3]) [µM] | IC50 (hCDK1/B; Table 2) [µM] | SMILES
1 | < 5 | < 0.1 | < 5 | – | – | – | Cc1ccccc1CNc1cc(-c2cn[nH]c2C2CC2)ccn1 [Example 68]
2 | < 5 | < 0.5 | < 5 | – | – | – | c1ccc2c(c1)CCC2Nc1cc(-c2cn[nH]c2C2CC2)ccn1 (stereo not drawn) [Example 70]
3 | < 5 | < 1 | < 5 | – | – | – | CC(C)c1[nH]ncc1-c1ccnc(NCc2ccco2)c1 [Example 24]
4 | < 0.5 | < 0.5 | < 1 | – | – | – | CC(C)c1[nH]ncc1-c1ccnc(NC2CCCCCC2)c1 [Example 40]
5 | < 5 | < 1 | < 5 | – | – | – | CC(C)c1[nH]ncc1-c1ccnc(NC(C)c2ccccc2)c1 (stereo not drawn) [Example 27]
6 | < 5 | < 1 | < 5 | – | – | – | CC(C)c1[nH]ncc1-c1ccnc(NCc2ccccc2C(F)(F)F)c1 [Example 50]
7 | < 5 | < 0.5 | < 5 | – | – | – | CC(C)c1[nH]ncc1-c1ccnc(NCCc2cccnc2)c1 [Example 15]
8 | < 5 | < 0.5 | < 5 | – | – | – | CCC(CC)c1[nH]ncc1-c1ccnc(NCc2ccccc2C)c1 [Example 71]
9 | – | – | – | < 5 | < 5 | < 1 | CC(C)c1n[nH]cc1-c1ccnc(NCCCN(C)c2ccccc2)n1 [Example 142]
10 | – | – | – | < 10 | < 0.5 | < 10 | Cc1n[nH]cc1-c1ccnc(NC2CCc3ccccc32)n1 (stereo not drawn) [Example 112]
11 | < 1 | < 0.5 | < 5 | – | – | – | c1cc(-c2cn[nH]c2C2CCCC2)cc(NC2CC2)n1 [Example 53]
12 | < 1 | < 0.5 | < 5 | – | – | – | CC(C)c1[nH]ncc1-c1ccnc(NC2CC2)c1 [Example 39]
13 | < 5 | < 5 | < 5 | – | – | – | CCC(C)c1[nH]ncc1-c1ccnc(NC2CCc3ccccc32)c1 (stereo not drawn) [Example 82]
14 | – | – | – | < 5 | < 0.5 | < 5 | CC(C)c1n[nH]cc1-c1ccnc(NC2CC(C)(C)c3ccccc32)n1 (stereo not drawn) [Example 191]
15 | < 5 | < 1 | < 5 | – | – | – | c1cc(-c2cn[nH]c2C2CCCC2)cc(NCC2CC2)n1 [Example 57]
16 | < 15 | < 0.5 | < 10 | – | – | – | CC(C)c1[nH]ncc1-c1ccnc(NC(CO)C(C)C)c1 (stereo not drawn) [Example 46]
17 | – | – | – | < 5 | < 5 | < 5 | CC(C)c1n[nH]cc1-c1ccnc(NCc2ccccc2C(F)(F)F)n1 [Example 154]
18 | – | – | – | < 5 | < 0.1 | < 5 | CC(C)c1n[nH]cc1-c1ccnc(N[C@H](C)c2ccccn2)n1 [Example 187]
19 | < 1 | < 0.5 | < 5 | – | – | – | c1cc(-c2cn[nH]c2C2CCCC2)cc(NC2CCCCCC2)n1 [Example 55]
20 | < 1 | < 0.5 | < 5 | – | – | – | CCC(C)Nc1cc(-c2cn[nH]c2C(C)C)ccn1 (stereo not drawn) [Example 26]
21 | – | – | – | < 10 | < 5 | < 5 | Cc1n[nH]cc1-c1ccnc(NCCCn2ccnc2)n1 [Example 106]
22 | ≥ 15 | < 15 | ≥ 15 | – | – | – | CC(C)(C)c1[nH]ncc1-c1ccnc(NC2CCc3ccccc32)c1 (stereo not drawn) [Example 75]

Row | IC50 (CDK2 cyA; [1]) [µM] | IC50 (CDK4; Table 1, read-out: CDK4 HTRF) [µM] | IC50 (hCDK1/B; Table 1) [µM] | IC50 (CDK2 cyA; [2]) [µM] | IC50 (CDK4; [3]) [µM] | IC50 (hCDK1/B; Table 2) [µM] | SMILES
23 | < 5 | < 1 | < 5 | – | – | – | CC(C)c1[nH]ncc1-c1ccnc(NCc2ccccc2)c1 [Example 4]
24 | < 0.5 | < 0.5 | < 0.5 | – | – | – | CC(C)CNc1cc(-c2cn[nH]c2C(C)C)ccn1 [Example 9]
25 | ≥ 15 | < 5 | ≥ 15 | – | – | – | CC(C)c1[nH]ncc1-c1ccnc(NCCCCN2CCCC2)c1 [Example 33]
26 | – | – | – | < 1 | < 5 | < 1 | CC(C)c1n[nH]cc1-c1ccnc(NCc2ccccc2Cl)n1 [Example 153]
27 | – | – | – | < 10 | < 5 | < 10 | Cc1ccccc1CNc1nccc(-c2c[nH]nc2C)n1 [Example 137]
28 | < 5 | < 5 | < 5 | – | – | – | CC(C)c1[nH]ncc1-c1ccnc(NCC2CCCCCC2)c1 [Example 20]
29 | ≥ 15 | < 5 | ≥ 15 | – | – | – | CC(C)c1[nH]ncc1-c1ccnc(NCCCCN(C)C)c1 [Example 18]
30 | – | – | – | ≥ 15 | < 5 | ≥ 15 | Cc1[nH]nc(C(C)C)c1-c1ccnc(NC2CCN(C)CC2)n1 [Example 185]
31 | < 5 | < 0.5 | < 5 | – | – | – | CCCCNc1cc(-c2cn[nH]c2C(C)C)ccn1 [Example 10]
32 | – | – | – | < 5 | < 1 | < 1 | CC(C)c1n[nH]cc1-c1ccnc(NCc2c(F)cccc2F)n1 [Example 157]
33 | < 5 | < 1 | < 1 | – | – | – | CCC(CC)c1[nH]ncc1-c1ccnc(NC2CCN(C(=O)OC(C)(C)C)CC2)c1 [Example 72]
34 | < 5 | < 5 | < 5 | – | – | – | CCC(CC)c1[nH]ncc1-c1ccnc(NC2CCc3ccccc32)c1 (stereo not drawn) [Example 74]
35 | < 5 | < 10 | < 5 | – | – | – | FC(F)(F)c1ccccc1CNc1cc(-c2cn[nH]c2C2CCCC2)ccn1 [Example 63]
36 | – | – | – | < 0.5 | < 1 | < 0.5 | CC(C)c1n[nH]cc1-c1ccnc(NCc2ccccc2F)n1 [Example 165]
37 | < 1 | < 0.5 | < 5 | – | – | – | c1cc(-c2cn[nH]c2C2CCCC2)cc(NC2CCCCC2)n1 [Example 54]
38 | – | – | – | < 5 | < 1 | < 5 | Cc1n[nH]cc1-c1ccnc(NC2CCCC2)n1 [Example 86]
39 | – | – | – | < 5 | < 0.5 | < 5 | Cc1n[nH]cc1-c1ccnc(NC2Cc3ccccc3C2)n1 [Example 125]
40 | – | – | – | < 0.5 | < 0.05 | < 0.5 | CC(C)c1n[nH]cc1-c1ccnc(NC2CCN(c3ccccc3)CC2)n1 [Example 172]
41 | – | – | – | < 5 | < 1 | < 5 | Cc1n[nH]cc1-c1ccnc(NC2CCCCC2)n1 [Example 84]
42 | < 5 | < 5 | < 5 | – | – | – | Cc1ccc(CNc2cc(-c3cn[nH]c3C(C)C)ccn2)cc1 [Example 28]
43 | – | – | – | < 5 | < 5 | < 5 | Cc1n[nH]cc1-c1ccnc(NCC(C)C)n1 [Example 92]
44 | – | – | – | < 10 | < 1 | < 10 | Cc1n[nH]cc1-c1ccnc(NCCc2cccnc2)n1 [Example 132]

Row | IC50 (CDK2 cyA; [1]) [µM] | IC50 (CDK4; Table 1, read-out: CDK4 HTRF) [µM] | IC50 (hCDK1/B; Table 1) [µM] | IC50 (CDK2 cyA; [2]) [µM] | IC50 (CDK4; [3]) [µM] | IC50 (hCDK1/B; Table 2) [µM] | SMILES
45 | < 5 | < 0.5 | < 5 | – | – | – | c1ccc(CCNc2cc(-c3cn[nH]c3C3CCCC3)ccn2)cc1 [Example 58]
46 | < 5 | < 0.5 | < 5 | – | – | – | Cc1ccccc1CNc1cc(-c2cn[nH]c2C2CCCC2)ccn1 [Example 60]
47 | < 1 | < 0.1 | < 1 | – | – | – | c1ccc2c(c1)CC(Nc1cc(-c3cn[nH]c3C3CC3)ccn1)C2 [Example 69]
48 | < 5 | < 5 | < 5 | – | – | – | CC(C)c1[nH]ncc1-c1ccnc(NCc2ccc(F)cc2)c1 [Example 30]
49 | < 5 | < 0.5 | < 5 | – | – | – | CC(C)c1[nH]ncc1-c1ccnc(NC2CCc3ccccc32)c1 (stereo not drawn) [Example 43]
50 | ≥ 15 | < 10 | ≥ 15 | – | – | – | CC(C)c1[nH]ncc1-c1ccnc(NCCCN2CCCC2)c1 [Example 19]
51 | ≥ 15 | < 0.5 | < 15 | – | – | – | CN1CCC(Nc2cc(-c3cn[nH]c3C3CC3)ccn2)CC1 [Example 80]
52 | – | – | – | < 5 | < 0.5 | < 1 | CC(CCCC(C)(C)O)Nc1nccc(-c2c[nH]nc2C(C)C)n1 (stereo not drawn) [Example 145]
53 | < 10 | < 1 | < 5 | – | – | – | CCC(CC)c1[nH]ncc1-c1ccnc(NC2CCN(C)CC2)c1 [Example 73]
54 | – | – | – | < 15 | < 0.5 | < 15 | Cc1n[nH]cc1-c1ccnc(NC2CCN(C)CC2)n1 [Example 90]
55 | < 5 | < 5 | < 5 | – | – | – | COc1ccc(CNc2cc(-c3cn[nH]c3C(C)C)ccn2)cc1 [Example 34]
56 | – | – | – | < 5 | < 1 | < 5 | CC(CCc1ccccc1)Nc1nccc(-c2c[nH]nc2C(C)C)n1 (stereo not drawn) [Example 155]
57 | < 5 | < 0.5 | < 5 | – | – | – | c1cncc(CCNc2cc(-c3cn[nH]c3C3CCCC3)ccn2)c1 [Example 59]
58 | < 1 | < 0.5 | < 5 | – | – | – | CC(C)c1[nH]ncc1-c1ccnc(NCCc2ccccc2)c1 [Example 37]
59 | < 1 | < 0.5 | < 5 | – | – | – | CC(C)CNc1cc(-c2cn[nH]c2C2CCCC2)ccn1 [Example 56]
60 | ≥ 15 | < 5 | < 10 | – | – | – | CN1CCC(Nc2cc(-c3cn[nH]c3C3CCCC3)ccn2)CC1 [Example 79]
61 | – | – | – | > 15 | < 0.5 | ≥ 15 | CC(C)c1n[nH]cc1-c1ccnc(NC2CCCc3cccnc32)n1 (stereo not drawn) [Example 186]
62 | – | – | – | < 1 | < 0.05 | < 0.5 | CC(C)c1n[nH]cc1-c1ccnc(NC2CCN(C(=O)OC(C)(C)C)CC2)n1 [Example 140]
63 | < 5 | < 0.5 | < 5 | – | – | – | CCCNc1cc(-c2cn[nH]c2C(C)C)ccn1 [Example 44]
64 | – | – | – | < 5 | < 0.5 | < 5 | Cc1n[nH]cc1-c1ccnc(NC2CCN(c3ccccc3)CC2)n1 [Example 136]
65 | < 1 | < 5 | < 0.5 | – | – | – | CC(C)c1[nH]ncc1-c1ccnc(NCCCn2ccnc2)c1 [Example 41]
